Measured values published in US20250195502A1, “APPLICATION OF TETRACYCLIC COMPOUND IN TREATMENT OF TUMORS” (SHANGHAI SHIJIANG BIOTECHNOLOGY CO., LTD, priority 2022, published 2025).
Where two headings read alike, the source gives them in different places.

Experiments:
Format in all cases: cell-based
[1] = tested on: SW48 (human colon adenocarcinoma cell); test: Cell viability assay (Promega CellTiter-Glo), inhibitory effect on SW48; details: 72 h, 3 days of culture
Description: (§1) The inhibitory effect of the compounds prepared in the Examples of the present invention on various tumor cell lines was detected using cell viability assay reagent.
(§2) Cell viability was detected using the Promega CellTiter-Glo kit, cell viability was determined by directly measuring intracellular ATP content. In the experiment, the ICso value of the compounds prepared in the Examples of the present invention on various tumor cell lines was detected.
(§3) Each tumor cell was cultured in relevant medium. After cell passage, the gradient diluted compounds prepared in the Examples of the present invention was added. After 3 days of culture, the relevant IC50 (50% inhibiting concentration) was measured. The name, source and culture conditions of each tumor cell line were as follows:
Cell line SW48 (ATCC, No. CCL-231) was cultured in 10% fetal bovine serum-containing Leibovitz's L-15 medium (+P/S).

[2] = tested on: SF126 (human glioblastoma multiforme cell); test: Cell viability assay (Promega CellTiter-Glo), inhibitory effect on SF126
Description: as §1, §2, §3
Cell line SF126 (JCRB, No. IFO50286) was cultured in 10% fetal bovine serum-containing EMEM medium (+P/S).
(§4) The inhibitory effect of the compounds prepared in the Examples of the present invention on various brain tumor cell lines was detected using cell viability assay reagent.
(§5) Cell viability was detected using the Promega CellTiter-Glo kit, cell viability was determined by directly measuring intracellular ATP content. In the experiment, the IC50 value of the compounds prepared in the Examples of the present invention on various brain tumor cell lines was detected.

[3] = tested on: Kelly (brain neuroblastoma cell); test: Cell viability assay (Promega CellTiter-Glo), inhibitory effect on Kelly; details: Homo sapiens, 72 h, 3 days of culture, read-out: inhibitory effect on brain cell line Kelly (IC50)
Description: as §4, §5, §3
Cell line Kelly (ECACC, No. 92110411) was cultured in 10% fetal bovine serum and 2 mM glutamine-containing RPMI1640 medium.

[4] = tested on: sh-DNMT1 NCI-H82 cell (DNMT1 knocked down NCI-H82); test: Cell viability assay (Promega CellTiter-Glo), inhibitory effect on sh-DNMT1 NCI-H82 cell; details: Homo sapiens, NCI-H82 with DNMT1 knocked down by shRNA
Description: (§6) The role of expression level of NNMT gene and DNMT1 in the sensitivity of NCI-H82 cell to the compounds prepared in the Examples of the present invention was determined
(§7) The expression of NNMT protein in NCI-H82 cell was overexpressed by inserting the NNMT gene into NCI-H82 cell using a viral vector, and the NNMT protein-overexpressing NCI-H82 cell (ov-NNMT NCI-H82 cell) was obtained. The expression of DNMT1 in NCI-H82 cell was knocked down transfecting (the by shRNA nucleotide sequence of shRNA was […] TTTTTG (SEQ ID No: 2)) using a viral vector, and the NCI-H82 cell with low expression of DNMT1 protein (sh-DNMT1 NCI-H82 cell) was obtained. The control NCI-H82 cell (Con-NCI-H82 cell) was obtained by transfecting NCI-H82 cell with empty virus vector without carrying NNMT gene and shRNA. The expressing content of NNMT protein and DNMT1 protein in the Con-NCI-H82 cell, the expressing content of NNMT protein in the ov-NNMT NCI-H82 cell, and the expressing content of DNMT1 protein in the sh-DNMT1 NCI-H82 cell were detected using Western Blot assay (as shown in FIG. 15 and FIG. 16), it could be seen from FIG. 15 and FIG. 16 that the NNMT protein was overexpressed in the ov-NNMT NCI-H82 cell and the expression of DNMT1 protein was knocked down (i.e, low expression) in the sh-DNMT1 NCI-H82 cell compared with the expression level of NNMT protein and DNMT protein in the Con-NCI-H82 cell.

[5] = tested on: 786-O (clear cell renal cell adenocarcinoma cell); test: Cell viability assay (Promega CellTiter-Glo), inhibitory effect on 786-O; details: Homo sapiens, 786-0, 72 h, 3 days of culture
Description: as §1, §2, §3
Cell line 786-0 (ATCC, No. CRL-1932) was cultured in 10% fetal bovine serum-containing RPMI1640 medium (+P/S).

[6] = tested on: D341 Med (cerebellar medulloblastoma cell); test: Cell viability assay (Promega CellTiter-Glo), inhibitory effect on D341 Med; details: Homo sapiens, 72 h, 3 days of culture, read-out: inhibitory effect on brain cell line D341 Med (IC50)
Description: as §4, §5, §3
Cell line D341 Med (ATCC, No. HTB-187) was cultured in 20% fetal bovine serum-containing EMEM medium (+P/S).

[7] = tested on: CFPAC-1 (human pancreatic cancer cell); test: Cell viability assay (Promega CellTiter-Glo), inhibitory effect on CFPAC-1; details: 72 h, 3 days of culture
Description: as §1, §2, §3
Cell line CFPAC-1 (ATCC, No. CRL-1918) was cultured in 10% fetal bovine serum-containing IMDM medium (+P/S).

[8] = tested on: GB-1 (human brain glioblastoma cell); test: Cell viability assay (Promega CellTiter-Glo), inhibitory effect on GB-1; details: 72 h, 3 days of culture
Description: as §1, §2, §3
Cell line GB-1 (JCRB, No. IFO50489) was cultured in 10% fetal bovine serum-containing DMEM medium (+P/S).
as §4, §5

[9] = tested on: NB-1 (brain neuroblastoma cell); test: Cell viability assay (Promega CellTiter-Glo), inhibitory effect on NB-1; details: Homo sapiens, 72 h, 3 days of culture, read-out: inhibitory effect on brain cell line NB-1 (IC50)
Description: as §4, §5, §3
Cell line NB-1 (ATCC, No. HTB-131) was cultured in 10% fetal bovine serum-containing Leibovitz's L-15 medium (+P/S).

[10] = tested on: Con-NCI-H82 cell (NCI-H82 transfected with empty virus vector); test: Cell viability assay (Promega CellTiter-Glo), inhibitory effect on Con-NCI-H82 cell; details: Homo sapiens
Description: as §6, §7

[11] = tested on: MDA-MB-453 (breast cancer cell); test: Cell viability assay (Promega CellTiter-Glo), inhibitory effect on MDA-MB-453; details: Homo sapiens, 72 h, 3 days of culture
Description: as §1, §2, §3
Cell line MDA-MB-453 (ATCC, No. HTB-131) was cultured in 10% fetal bovine serum-containing Leibovitz's L-15 medium (+P/S).

[12] = tested on: G-401 (human renal carcinoma Wilms cell); test: Cell viability assay (Promega CellTiter-Glo), inhibitory effect on G-401; details: 72 h, 3 days of culture
Description: as §1, §2, §3
Cell line G-401 (ATCC, No. CRL-1441) was cultured in 10% fetal bovine serum-containing McCoy's 5a medium (+P/S).

[13] = tested on: ov-NNMT NCI-H82 cell (NNMT protein-overexpressing NCI-H82); test: Cell viability assay (Promega CellTiter-Glo), inhibitory effect on ov-NNMT NCI-H82 cell; details: Homo sapiens
Description: as §6, §7

[14] = tested on: NCI-H82 (human small cell lung cancer cell); test: Cell viability assay (Promega CellTiter-Glo), inhibitory effect on NCI-H82; details: 72 h, 3 days of culture
Description: as §1, §2, §3
Cell line NCI-H82 (ATCC, No. HTB-175) was cultured in 10% fetal bovine serum-containing RPMI1640 medium (+P/S).

[15] = 72 h, SF-126, 3 days of culture, Table 3, read-out: inhibitory effect on SF-126 (IC50)
[16] = Table 3, read-out: inhibitory effect on GB-1 (IC50)
[17] = NCI-H82 transfected with empty virus vector (control), CellTiter-Glo, read-out: inhibitory effect on Con-NCI-H82 (IC50)
[18] = NCI-H82, read-out: inhibitory effect on Con-NCI-H82 (IC50)

SMILES	IC50 [4] [nM]	IC50 [10, 17] [nM]	IC50 [13] [nM]	further results
CCc1c2c(OC)c(OC)ccc2cc2[n+]1CCc1cc3c(cc1-2)OCO3 [compound AB31706]	4640	1480	3150	IC50 [1]: 1240 nM; IC50 [2, 15]: 6490 nM; IC50 ([2]; SF-126, 72 h, SF126, 3 days of culture, Table 4, read-out: inhibitory effect on brain cell line SF126 (IC50)): 6490 nM; IC50 [3]: 1510 nM; IC50 [5]: 16600 nM; IC50 [6]: 1180 nM; IC50 [7]: 21900 nM; IC50 [8, 16]: 12900 nM; IC50 ([8]; Table 4, read-out: inhibitory effect on brain cell line GB-1 (IC50)): 12900 nM; IC50 [9]: 300 nM; IC50 [11]: 620 nM; IC50 [12]: 1120 nM; IC50 [14]: 1480 nM
CCCCCCCCCCOc1c(OC)ccc2cc3[n+](cc12)CCc1cc2c(cc1-3)OCO2 [compound AB31716]	350	70	380	
CCCCCCCCCCCCOc1c(OC)ccc2cc3[n+](cc12)CCc1cc2c(cc1-3)OCO2 [compound AB31717]	360	110	250	
CCCCC(=O)Oc1c(OC)ccc2cc3[n+](cc12)CCc1cc2c(cc1-3)OCO2 [compound AB31723]	8080	3940	8280	IC50 [1]: 2560 nM; IC50 [2, 15]: 19300 nM; IC50 [5]: 21500 nM; IC50 [7]: 22600 nM; IC50 [8, 16]: > 50000 nM; IC50 [11]: 3450 nM; IC50 [12]: 5310 nM; IC50 [14]: 3940 nM
CCc1c2[n+](cc3c(OC)c(OC)ccc13)CCc1cc3c(cc1-2)OCO3 [compound AB31755]	7680	2360	4820	
CCCc1c2[n+](cc3c(OC)c(OC)ccc13)CCc1cc3c(cc1-2)OCO3 [compound AB31756]	4360	1010	2380	
CCCCCCCCc1c2[n+](cc3c(OC)c(OC)ccc13)CCc1cc3c(cc1-2)OCO3 [compound AB31761]	980	270	740	
CCCCCCCCCCc1c2[n+](cc3c(OC)c(OC)ccc13)CCc1cc3c(cc1-2)OCO3 [compound AB31762]	490	130	320	
CCCCCCCCCCCCc1c2[n+](cc3c(OC)c(OC)ccc13)CCc1cc3c(cc1-2)OCO3 [compound AB31763]	420	80	310	
CCCCCCCCCCCC(=O)Oc1c(OC)ccc2cc3[n+](cc12)CCc1cc2c(cc1-3)OCO2 [compound AB31766]	4840	2470	4950	IC50 [1]: 1210 nM; IC50 [2, 15]: 12900 nM; IC50 [5]: 13000 nM; IC50 [7]: 15200 nM; IC50 [8, 16]: 9120 nM; IC50 [11]: 1250 nM; IC50 [12]: 2890 nM; IC50 [14]: 2470 nM
CCCCCCCCCCCCc1c2[n+](cc3c(OCCCCCCCCCC)c(OC)ccc13)CCc1cc3c(cc1-2)OCO3 [compound AB31795]	880	240	680	
CCCCCCCCCCCCc1c2[n+](cc3c(OCCCCCCCC)c(OC)ccc13)CCc1cc3c(cc1-2)OCO3 [compound AB31796]	760	270	640	
CCCCCCCCCCCCc1c2[n+](cc3c(OCCCCCC)c(OC)ccc13)CCc1cc3c(cc1-2)OCO3 [compound AB31797]	480	120	540	
CCCCCCCCCCCCCCc1c2[n+](cc3c(OC)c(OC)ccc13)CCc1cc3c(cc1-2)OCO3 [compound AB31800]	580	220	650	
COc1ccc2cc3[n+](cc2c1OC)CCc1cc2c(cc1-3)OCCO2 [compound AB31811]	12400	3120	7340	
COc1ccc2cc3[n+](cc2c1OCCCCl)CCc1cc2c(cc1-3)OCO2 [compound AB35483]	5320		2880	IC50 [10, 18]: 1260 nM
CCCOc1c(OC)ccc2cc3[n+](cc12)CCc1cc2c(cc1-3)OCO2 [compound AB35511]	2560	610	1380	
COc1ccc2cc3[n+](cc2c1OCc1ccc(-c2ccccc2)cc1)CCc1cc2c(cc1-3)OCO2 [compound AB35532]	2560	340	960	
COc1ccc2cc3[n+](cc2c1OCCBr)CCc1cc2c(cc1-3)OCO2 [compound AB35595]	3150	680	1540	
COc1ccc2cc3[n+](cc2c1OCCCl)CCc1cc2c(cc1-3)OCO2 [compound AB36404]	4860		2540	IC50 [10, 18]: 1060 nM
CCOc1c(OC)ccc2cc3[n+](cc12)CCc1cc2c(cc1-3)OCO2 [compound AB36412]	4690	1170	2580	
COc1c(OCCCCl)ccc2cc3[n+](cc12)CCc1cc2c(cc1-3)OCO2 [compound AB36425]	3880		1920	IC50 [10, 18]: 850 nM
COc1ccc2cc3[n+](cc2c1OCCF)CCc1cc2c(cc1-3)OCO2 [compound AB36484]	8320	1840	3850	
[2H]C([2H])([2H])Oc1c(OC)ccc2cc3[n+](c(C4CCCC4)c12)CCc1cc2c(cc1-3)OCO2.[Br-] [compound AB36508]	2820	560	1340	
